Assay results reported in patent US4698352A, “4-oxo-1,4-dihydronicotinic acid derivatives, salts thereof, and antibacterial agents containing the same” (Toyama Chemical Co., Ltd., priority 1982, dated 1987).
≈ marks a conversion by molar mass, not a printed value. Read-outs that look alike come from different tables or passages of the source.

Experiments:
Experiment in all cases: Antibacterial activity (MIC), agar dilution
Assay type in all cases: cell-based
E. coli NIHJ JC-2 = settings: Escherichia coli, NIHJJC2, 20 h, E. coli NIHJ JC-2; 10^6 cells per ml; 37° C., 20 hours; read-out: MIC
Description: (§1) The amount of bacteria inoculated was 10^4 cells per plate (10^6 cells per ml).

Kl. pneumoniae Y-41 = settings: Klebsiella pneumoniae, Y41, 10^6 cells per ml, 37° C., 20 hours, read-out: MIC
Description: as §1

Ent. cloacae IID977 = settings: Enterobacter cloacae, IID977, 20 h
Description: as §1

E. coli TK-111 = settings: Escherichia coli, TK111, 20 h, E. coli TK-111; 10^6 cells per ml; 37° C., 20 hours; read-out: MIC
Description: as §1

Pro. vulgaris GN3027 = settings: Proteus vulgaris, GN3027, 20 h, Pro. vulgaris GN3027; 10^6 cells per ml; 37° C., 20 hours; read-out: MIC
Description: as §1

Ps. aeruginosa S-68 = settings: Pseudomonas aeruginosa
Description: as §1

St. aureus FDA209P = settings: Staphylococcus aureus, FDA209P, 20 h, St. aureus FDA209P; 10^6 cells per ml; 37° C., 20 hours; read-out: MIC
Description: as §1

Pro. morganii T-216 = settings: Morganella morganii, 37° C.
Description: as §1

Ps. aeruginosa IFO3445 = settings: Pseudomonas aeruginosa
Description: as §1

Aci. antitratus A-6 = settings: 20 h, Aci. antitratus A-6; 10^6 cells per ml; 37° C., 20 hours; read-out: MIC
Description: as §1

Pro. mirabilis T-111 = settings: Proteus mirabilis, 37° C.
Description: as §1

Kl. pneumoniae Y-50 = settings: Klebsiella pneumoniae, Y50, 20 h, 10^6 cells per ml, 37° C., read-out: MIC
Description: as §1

E. coli TK-3* = settings: Escherichia coli, 20 h
Description: as §1
(§2) * Penicillinase-producing bacteria

St. aureus F-137* = settings: Staphylococcus aureus, 20 h, St. aureus F-137, penicillinase-producing; 10^6 cells per ml; read-out: MIC
Description: as §1, §2

Ps. aeruginosa GN3379* = settings: Pseudomonas aeruginosa, Ps. aeruginosa GN3379, penicillinase-producing, 10^6 cells per ml
Description: as §1, §2

Kl. pneumoniae Y-4* = settings: Klebsiella pneumoniae, 20 h, Kl. pneumoniae Y-4, penicillinase-producing; 10^6 cells per ml; read-out: MIC
Description: as §1, §2

Ps. aeruginosa GN918** = settings: Pseudomonas aeruginosa, Ps. aeruginosa GN918, cephalospolinase-producing, 10^6 cells per ml
Description: as §1
(§3) ** Cephalospolinase-producing bacteria

E. coli GN5482** = settings: Escherichia coli, 20 h; E. coli GN5482, cephalospolinase-producing; 10^6 cells per ml; read-out: MIC
Description: as §1, §3

Pro. vulgaris GN76** = settings: Proteus vulgaris
Description: as §1, §3

[1] = Ent. cloacae IID977, 10^6 cells per ml, 37° C., 20 hours, read-out: MIC
[2] = S68, Ps. aeruginosa S-68, 10^6 cells per ml, 37° C., 20 hours, read-out: MIC
[3] = Ps. aeruginosa IFO3445, 10^6 cells per ml, 37° C., 20 hours, read-out: MIC
[4] = E. coli TK-3, penicillinase-producing, 10^6 cells per ml, read-out: MIC
[5] = 20 h, Pro. vulgaris GN76, cephalospolinase-producing, 10^6 cells per ml, read-out: MIC
[6] = T216, 10^6 cells per ml, 20 hours, read-out: MIC
[7] = T111, 10^6 cells per ml, 20 hours, read-out: MIC

SMILES	MIC (E. coli NIHJ JC-2)	MIC (Kl. pneumoniae Y-41)	MIC (Ent. cloacae IID977; [1])	MIC (E. coli TK-111)	MIC (Pro. vulgaris GN3027)	MIC (Ps. aeruginosa S-68; [2])	MIC (St. aureus FDA209P)	MIC (Ps. aeruginosa IFO3445; [3])	MIC (Aci. antitratus A-6)	MIC (Pro. mirabilis T-111; T111, 20 h, 10^6 cells per ml)	MIC (Kl. pneumoniae Y-50)	MIC (E. coli TK-3*; [4])	MIC (St. aureus F-137*)	MIC (Ps. aeruginosa GN3379*; 20 h, read-out: MIC)	MIC (Kl. pneumoniae Y-4*)	MIC (Ps. aeruginosa GN918**; 20 h, read-out: MIC)	MIC (E. coli GN5482**)	MIC (Pro. vulgaris GN76**; [5])	MIC (Ps. aeruginosa S-68; S68, 20 h)	MIC (Pro. morganii T-216; [6])	further results
CN(C)c1ccc(-c2cc(=O)c(C(=O)O)cn2-c2cccc(O)c2)cc1	0.39 µg/mL (≈ 1.11 µM)	1.56 µg/mL (≈ 4.45 µM)	0.78 µg/mL (≈ 2.23 µM)	0.1 µg/mL (≈ 0.285 µM)	0.2 µg/mL (≈ 0.571 µM)	6.25 µg/mL (≈ 17.8 µM)	0.2 µg/mL (≈ 0.571 µM)	12.5 µg/mL (≈ 35.7 µM)	0.39 µg/mL (≈ 1.11 µM)	3.13 µg/mL (≈ 8.93 µM)	0.39 µg/mL (≈ 1.11 µM)	0.39 µg/mL (≈ 1.11 µM)	0.2 µg/mL (≈ 0.571 µM)	6.25 µg/mL (≈ 17.8 µM)	3.13 µg/mL (≈ 8.93 µM)	12.5 µg/mL (≈ 35.7 µM)	≤ 0.05 µg/mL	0.78 µg/mL (≈ 2.23 µM)			MIC (Pro. morganii T-216; T216, 20 h, 10^6 cells per ml): 1.56 µg/mL (≈ 4.45 µM)
O=C(O)c1cn(-c2ccc(O)cc2)c(-c2ccc3ccccc3c2)cc1=O	0.2 µg/mL (≈ 0.56 µM)	1.56 µg/mL (≈ 4.37 µM)	0.39 µg/mL (≈ 1.09 µM)	≤ 0.05 µg/mL	0.1 µg/mL (≈ 0.28 µM)		≤ 0.05 µg/mL	6.25 µg/mL (≈ 17.5 µM)	0.2 µg/mL (≈ 0.56 µM)		0.39 µg/mL (≈ 1.09 µM)	0.39 µg/mL (≈ 1.09 µM)	≤ 0.05 µg/mL	3.13 µg/mL (≈ 8.76 µM)	1.56 µg/mL (≈ 4.37 µM)	6.25 µg/mL (≈ 17.5 µM)	≤ 0.05 µg/mL	0.39 µg/mL (≈ 1.09 µM)	1.56 µg/mL (≈ 4.37 µM)	0.39 µg/mL (≈ 1.09 µM)	MIC (Pro. mirabilis T-111; [7]): 0.78 µg/mL (≈ 2.18 µM)
O=C(O)c1cn(-c2ccc(O)cc2)c(-c2ccc(-c3ccccc3)s2)cc1=O	0.39 µg/mL (≈ 1 µM)	3.13 µg/mL (≈ 8.04 µM)		≤ 0.05 µg/mL	≤ 0.05 µg/mL		≤ 0.05 µg/mL		0.2 µg/mL (≈ 0.514 µM)		0.78 µg/mL (≈ 2 µM)	0.78 µg/mL (≈ 2 µM)	≤ 0.05 µg/mL		1.56 µg/mL (≈ 4.01 µM)		≤ 0.05 µg/mL	0.39 µg/mL (≈ 1 µM)	3.13 µg/mL (≈ 8.04 µM)	0.78 µg/mL (≈ 2 µM)	MIC (Ent. cloacae IID977): 1.56 µg/mL (≈ 4.01 µM); MIC (Ps. aeruginosa IFO3445; IFO3445, 20 h): 3.13 µg/mL (≈ 8.04 µM); MIC (Pro. mirabilis T-111; [7]): 0.78 µg/mL (≈ 2 µM); MIC (Ps. aeruginosa GN3379*; GN3379, 20 h): 3.13 µg/mL (≈ 8.04 µM); MIC (Ps. aeruginosa GN918**; GN918, 20 h): 1.56 µg/mL (≈ 4.01 µM)
CN(C)c1ccc(-c2cc(=O)c(C(=O)O)cn2-c2cccc3c(O)cccc23)cc1	0.39 µg/mL (≈ 0.974 µM)	6.25 µg/mL (≈ 15.6 µM)	1.56 µg/mL (≈ 3.9 µM)	≤ 0.05 µg/mL	1.56 µg/mL (≈ 3.9 µM)	12.5 µg/mL (≈ 31.2 µM)	0.1 µg/mL (≈ 0.25 µM)	12.5 µg/mL (≈ 31.2 µM)	0.39 µg/mL (≈ 0.974 µM)		0.78 µg/mL (≈ 1.95 µM)	1.56 µg/mL (≈ 3.9 µM)	≤ 0.05 µg/mL	> 100 µg/mL	6.25 µg/mL (≈ 15.6 µM)		≤ 0.05 µg/mL	1.56 µg/mL (≈ 3.9 µM)		3.13 µg/mL (≈ 7.82 µM)	MIC (Pro. mirabilis T-111; [7]): 3.13 µg/mL (≈ 7.82 µM); MIC (Ps. aeruginosa GN918**; GN918, 20 h): 6.25 µg/mL (≈ 15.6 µM)
O=C(O)c1cn(-c2ccc(F)cc2)c(/C=C/c2ccccc2)cc1=O	3.13 µg/mL (≈ 9.33 µM)	12.5 µg/mL (≈ 37.3 µM)		1.56 µg/mL (≈ 4.65 µM)	0.78 µg/mL (≈ 2.33 µM)	25 µg/mL (≈ 74.6 µM)	3.13 µg/mL (≈ 9.33 µM)	50 µg/mL (≈ 149 µM)	1.56 µg/mL (≈ 4.65 µM)	12.5 µg/mL (≈ 37.3 µM)	6.25 µg/mL (≈ 18.6 µM)		3.13 µg/mL (≈ 9.33 µM)	25 µg/mL (≈ 74.6 µM)	25 µg/mL (≈ 74.6 µM)	50 µg/mL (≈ 149 µM)	0.39 µg/mL (≈ 1.16 µM)	3.13 µg/mL (≈ 9.33 µM)			MIC (Ent. cloacae IID977): 12.5 µg/mL (≈ 37.3 µM); MIC (Pro. morganii T-216; T216, 20 h, 10^6 cells per ml): 12.5 µg/mL (≈ 37.3 µM); MIC (E. coli TK-3*): 12.5 µg/mL (≈ 37.3 µM)
CN(C)c1ccc(-c2cc(=O)c(C(=O)O)cn2-c2ccc(F)cc2)cc1	0.78 µg/mL (≈ 2.21 µM)	6.25 µg/mL (≈ 17.7 µM)	3.13 µg/mL (≈ 8.88 µM)	0.39 µg/mL (≈ 1.11 µM)	0.39 µg/mL (≈ 1.11 µM)		0.78 µg/mL (≈ 2.21 µM)	25 µg/mL (≈ 70.9 µM)	0.39 µg/mL (≈ 1.11 µM)	6.25 µg/mL (≈ 17.7 µM)	1.56 µg/mL (≈ 4.43 µM)	3.13 µg/mL (≈ 8.88 µM)	0.78 µg/mL (≈ 2.21 µM)		12.5 µg/mL (≈ 35.5 µM)		0.2 µg/mL (≈ 0.568 µM)		12.5 µg/mL (≈ 35.5 µM)	3.13 µg/mL (≈ 8.88 µM)	MIC (Ps. aeruginosa GN3379*; GN3379, 20 h): 12.5 µg/mL (≈ 35.5 µM); MIC (Ps. aeruginosa GN918**; GN918, 20 h): 12.5 µg/mL (≈ 35.5 µM); MIC (Pro. vulgaris GN76**; GN76, 20 h): 1.56 µg/mL (≈ 4.43 µM)
